pIC50: −log10 of the molar value. Calls of active or inactive are those of the source. The rule behind the calls is not given here.
What was measured:
Huh-7 [1] = assay: Induction of apoptosis in human Huh-7 cells assessed as early apoptotic cells at 10 nM incubated for 24 hrs by annexin V-FITC/PI staining flow cytometry (reference value: 0.33 %); format: functional
SK-HEP1 [2] = assay: Induction of cell cycle arrest in human SK-Hep1 cells assessed as accumulation at G2 phase at 40 nM treated for 24 hrs by PI staining based flow cytometry (reference value: 16.55 %); format: functional
Huh-7 [3] = assay: Induction of cell cycle arrest in human Huh-7 cells assessed as accumulation at G1 phase at 80 nM treated for 24 hrs by PI staining based flow cytometry (reference value: 60.77 %); format: functional
SK-HEP1 [4] = assay: Induction of apoptosis in human SK-Hep1 cells assessed as late apoptotic cells at 40 nM incubated for 24 hrs by annexin V-FITC/PI staining flow cytometry (reference value: 1.13 %); format: functional
SK-HEP1 [5] = assay: Induction of apoptosis in human SK-Hep1 cells assessed as viable cells at 40 nM incubated for 24 hrs by annexin V-FITC/PI staining flow cytometry (reference value: 97.8 %); format: functional; conditions: read-out: Activity
Huh-7 [6] = assay: Induction of cell cycle arrest in human Huh-7 cells assessed as accumulation at S phase at 10 nM treated for 24 hrs by PI staining based flow cytometry (reference value: 23.33 %); format: functional
[7] = Induction of apoptosis in rat HSC-T6 cells assessed as necrotic cells at 10 nM pretreated with TGFbeta-1 for 1 day followed by compound addition and measured after 24 hrs by flow cytometry (reference value: 0.56 %); format: functional
SK-HEP1 [8] = assay: Antiproliferative activity against human SK-Hep1 cells assessed as inhibition of cell viability treated for 24 to 72 hrs by MTT assay; format: functional, cell-based; conditions: time 24-72 hrs, DDE = dose-dependent effect
Huh-7 [9] = assay: Induction of ROS generation in human Huh-7 cells incubated for 24 hrs by DCFH2-DA probe based flow cytometry; format: functional, cell-based; conditions: dose 10-80 nM, DDE = dose-dependent effect
[10] = Induction of apoptosis in rat HSC-T6 cells assessed as early apoptotic cells at 10 nM pretreated with TGFbeta-1 for 1 day followed by compound addition and measured after 24 hrs by flow cytometry (reference value: 0.17 %); format: functional
SK-HEP1 [11] = assay: Antiproliferative activity against human SK-Hep1 cells assessed as inhibition of cell viability at less than 0.068 uM treated for 24 hrs by MTT assay; format: functional
HCCLM9 = assay: Antiproliferative activity against human HCCLM9 cells treated for 72 hrs by MTT assay; format: functional, cell-based; conditions: HCCLM9, 72 h
Huh-7 [12] = assay: Induction of apoptosis in human Huh-7 cells assessed as late apoptotic cells at 80 nM incubated for 24 hrs by annexin V-FITC/PI staining flow cytometry (reference value: 1.33 %); format: functional
[13] = Induction of apoptosis in rat HSC-T6 cells assessed as viable cells at 10 nM pretreated with TGFbeta-1 for 1 day followed by compound addition and measured after 24 hrs by flow cytometry (reference value: 97.5 %); format: functional; conditions: read-out: Activity
[14] = Induction of apoptosis in rat HSC-T6 cells assessed as late apoptotic cells at 10 nM pretreated with TGFbeta-1 for 1 day followed by compound addition and measured after 24 hrs by flow cytometry (reference value: 1.76 %); format: functional
Huh-7 [15] = assay: Induction of cell cycle arrest in human Huh-7 cells assessed as accumulation at G2 phase at 10 nM treated for 24 hrs by PI staining based flow cytometry (reference value: 15.90 %); format: functional
Huh-7 [16] = assay: Induction of apoptosis in human Huh-7 cells assessed as cell shrinkage incubated for 24 hrs by Giemsa staining based microscopy; format: functional; conditions: dose 12-60 nM, DDE = dose-dependent effect
[17] = Toxicity in BALB/c mouse xenografted with human Huh-7 cells assessed as histopathological change in liver at 10 mg/kg, ip qd for 11 days and measured after 12 days by hematoxylin and eosin staining based assay; format: organism-based; conditions: in vivo, 288 h, time 12 day
[18] = Induction of apoptosis in rat HSC-T6 cells assessed as necrotic cells at 40 nM pretreated with TGFbeta-1 for 1 day followed by compound addition and measured after 24 hrs by flow cytometry (reference value: 0.56 %); format: functional
Huh-7 [19] = assay: Inhibition of cell invasion in human Huh-7 cells at 3 to 18 nM incubated for 24 hrs by matrigel based assay; format: functional; conditions: dose 3-18 nM
[20] = Tmax in Sprague-Dawley rat at 80 mg/kg, ip measured upto 24 hrs by LC-MS analysis; format: ADME, organism-based; conditions: in vivo
Huh-7 [21] = assay: Induction of apoptosis in human Huh-7 cells assessed as late apoptotic cells at 40 nM incubated for 24 hrs by annexin V-FITC/PI staining flow cytometry (reference value: 1.33 %); format: functional
Huh-7 [22] = assay: Induction of cell cycle arrest in human Huh-7 cells assessed as accumulation at G1 phase at 10 nM treated for 24 hrs by PI staining based flow cytometry (reference value: 60.77 %); format: functional
[23] = Acute toxicity in Kunming mouse assessed as animal survival at 400 mg/kg, ip measured for 14 consecutive days; format: organism-based; conditions: in vivo, 336 h, time 14 day
Huh-7 [24] = assay: Antiproliferative activity against human Huh-7 cells assessed as inhibition of cell viability treated for 24 to 72 hrs by MTT assay; format: functional, cell-based; conditions: time 24-72 hrs, DDE = dose-dependent effect
SK-HEP1 [25] = assay: Antiproliferative activity against human SK-HEP1 cells treated for 72 hrs by MTT assay; format: functional, cell-based; conditions: SK-HEP1, 72 h
SK-HEP1 [26] = assay: Induction of cell cycle arrest in human SK-Hep1 cells assessed as accumulation at G2 phase at 10 nM treated for 24 hrs by PI staining based flow cytometry (reference value: 16.55 %); format: functional
SK-HEP1 [27] = assay: Induction of apoptosis in human SK-Hep1 cells assessed as early apoptotic cells at 10 nM incubated for 24 hrs by annexin V-FITC/PI staining flow cytometry (reference value: 0.30 %); format: functional
Huh-7 [28] = assay: Induction of mitochondrial membrane potential changes in human Huh-7 cells assessed as decrease in TMRE positive cells at 80 nM incubated for 24 hrs by TMRE staining based flow cytometry; format: functional, cell-based
Huh-7 [29] = assay: Induction of apoptosis in human Huh-7 cells assessed as cytoskeleton disintegration incubated for 24 hrs by Giemsa staining based microscopy; format: functional, cell-based; conditions: dose 12-60 nM, DDE = dose-dependent effect
Huh-7 [30] = assay: Induction of apoptosis in human Huh-7 cells assessed as early apoptotic cells at 80 nM incubated for 24 hrs by annexin V-FITC/PI staining flow cytometry (reference value: 0.33 %); format: functional
SK-HEP1 [31] = assay: Induction of cell cycle arrest in human SK-Hep1 cells assessed as accumulation at S phase at 40 nM treated for 24 hrs by PI staining based flow cytometry (reference value: 24.98 %); format: functional
[32] = Toxicity in BALB/c mouse xenografted with human Huh-7 cells assessed as histopathological change in lung at 10 mg/kg, ip qd for 11 days and measured after 12 days by hematoxylin and eosin staining based assay; format: organism-based; conditions: in vivo, 288 h, time 12 day
[33] = MRT (0 to t) in Sprague-Dawley rat at 80 mg/kg, ip measured upto 24 hrs by LC-MS analysis; format: ADME, organism-based; conditions: in vivo
SK-HEP1 [34] = assay: Induction of apoptosis in human SK-Hep1 cells assessed as necrotic cells at 10 nM incubated for 24 hrs by annexin V-FITC/PI staining flow cytometry (reference value: 0.73 %); format: functional
[35] = Acute toxicity in Kunming mouse assessed as frequency of eating at 100 mg/kg, ip measured for 14 consecutive days; format: organism-based; conditions: in vivo, 336 h, time 14 day

Compound	Activity (Huh-7 [1])	Activity (SK-HEP1 [2])	Activity (Huh-7 [3])	Activity (SK-HEP1 [4])	viability at 0.04 µM (SK-HEP1 [5])	Activity (Huh-7 [6])	Activity [7]	Activity (SK-HEP1 [8])	Activity (Huh-7 [9])	Activity [10]	pIC50 (HCCLM9)	Activity (Huh-7 [12])	viability at 0.01 µM [13]	Activity [14]	Activity (Huh-7 [15])	Activity (Huh-7 [16])	Activity [18]	inhibition (Huh-7 [19])	Activity (Huh-7 [21])	Activity (Huh-7 [22])	further results
CC(=O)Oc1ccc2[nH]c3c(c2c1)CCN1C(=O)c2cc(F)cc(F)c2N(c2cccc(F)c2)C31 (stereo not given)	0.63%	70.47%	17.18%	13.4%	75.9%	34.56%	0.93%	Dde	Dde	0.52%	7.00	29.4%	89.9%	8.67%	13.54%	Dde	1.29%	Active	25.6%	51.9%	Activity (SK-HEP1 [11]): >80%; Activity [17]: Non-Toxic; Tmax [20]: 3 h; Activity [23]: Non-Toxic; Activity (Huh-7 [24]): Dde; pIC50 (SK-HEP1 [25]): 7.22; Activity (SK-HEP1 [26]): 18.08%; Activity (SK-HEP1 [27]): 5.25%; Activity (Huh-7 [28]): Active; Activity (Huh-7 [29]): Dde; Activity (Huh-7 [30]): 1.1%; Activity (SK-HEP1 [31]): 4.18%; Activity [32]: Non-Toxic; MRT last at 24 h [33]: 11.5 h; Activity (SK-HEP1 [34]): 0.58%
O=C1c2cc(F)cc(F)c2N(c2cccc(F)c2)C2c3[nH]c4ccc(O)cc4c3CCN12 (stereo not given)	0.73%	74.07%	10.64%	13.6%	74.7%	26.7%	0.8%	Dde	Dde	0.084%	6.96	30%	94%	5.1%	26.52%	Dde	1.11%	Active	13.5%	46.78%	Activity [35]: Non-Toxic; Activity (Huh-7 [24]): Dde; pIC50 (SK-HEP1 [25]): 7.15; Activity (SK-HEP1 [26]): 26.65%; Activity (SK-HEP1 [27]): 0.91%; Activity (Huh-7 [28]): Active; Activity (Huh-7 [29]): Dde; Activity (Huh-7 [30]): 1.71%; Activity (SK-HEP1 [31]): 4.11%; Activity (SK-HEP1 [34]): 2.39%
